Reference: US20260085062A1, “NOVEL COMPOUNDS AS CK2 INHIBITORS” (Cambridge Enterprise Limited, priority 2022, published 2026)

Legend:
CK2α = target: T1, CK2α (Homo sapiens, UniProt P68400); assay: Biochemical assay for inhibitors of CK2α kinase activity (ADP-Glo); details: 0.2 nM CK2α, 50 μM peptide substrate, 15 μM ATP, read-out: Assay 1: CK2α Enzyme IC50
T1 construct: CK2α (residues 2-329) was produced in Escherichia coli BL21 (DE3) for kinase activity screening; His6 (N, cleaved yes); made in house; host or cells: Escherichia coli BL21 (DE3)
T1 sequence (P68400 2-329): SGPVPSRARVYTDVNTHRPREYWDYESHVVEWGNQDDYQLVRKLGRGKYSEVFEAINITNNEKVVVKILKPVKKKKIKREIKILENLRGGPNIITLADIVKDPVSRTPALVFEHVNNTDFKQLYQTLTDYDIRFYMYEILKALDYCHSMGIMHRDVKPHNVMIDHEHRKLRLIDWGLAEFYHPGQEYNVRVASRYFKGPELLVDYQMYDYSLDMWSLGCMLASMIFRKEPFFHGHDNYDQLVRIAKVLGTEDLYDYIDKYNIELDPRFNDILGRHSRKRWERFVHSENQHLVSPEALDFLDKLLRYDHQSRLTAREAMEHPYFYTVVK
Protocol: The inhibitory activity of putative kinase inhibitors and the potency of selected compounds were determined using ADP-Glo™ assay. The kinase reaction was performed in the presence of excess peptide substrate and ATP at a concentration equivalent to Km. Upon termination of the kinase reaction, remaining ATP was depleted leaving only ADP reaction product, which was converted back to ATP with a coupled luciferin/luciferase reaction. The luminescent output from the coupled reaction was quantified and correlated with the kinase activity. […] Single colonies of the cells were grown in 6×1 L of 2×TY with 100 μg/mL ampicillin at 37° C. […] The cells were incubated overnight at 25° C. then harvested by centrifugation at 4,000 g for 20 minutes. The cell pellets were suspended in 20 mM Tris, 500 mM NaCl, pH 8.0 and lysed using a high pressure homogenizer. Protease inhibitor cocktail tablets (one tablet per 50 mL extract; Roche Diagnostics) and DNase I were then added. The crude cell extract was then centrifuged at 10,000 g for 45 minutes, the supernatant was filtered with a 0.22 μm filter. The soluble supernatant was applied on a Ni Sepharose Fast Flow6 column at pH 8.0, washed and eluted in 20 mM Tris pH 8.0, 500 mM NaCl, 200 mM imidazole. […] The cleaved protein was further purified on a Sepharose Q HP anion-exchange column and the main peak fraction from this column was further purified by gel filtration on a Superdex 75 16/60 HiPrep column equilibrated with Tris 20 mM, pH 8.0, 500 mM NaCl. Pure protein was concentrated to 15 mg/mL and flash frozen in liquid nitrogen. […] The assay was conducted as follows: • 1. […] After 120 minutes, the reaction was stopped by addition of 5 pl ADP-Glo reagent (Promega V9102) and the plate incubated at RT for a further 60 minutes. • 5. 10 μL of Kinase Detection reagent (Promega V9102) was added to assay plate and incubated for a further 30 minutes prior to reading luminescence on an Envision (Perkin-Elmer). Data was analysed to calculate compound IC50and Ki as follows: • 1. […] Percent activity was calculated for each well using: (Test well reading−MEAN100%inhibition control wells)/(MEAN0% inhibition control wells−MEAN100%inhibition control wells). • 5. Morrison Ki was determined using Morrison Ki equation (XL-fit).

CLK2 = target: T2, CLK2 (Homo sapiens, UniProt P49760); assay: Biochemical assay for inhibitors of CLK2 kinase activity (ADP-Glo); details: 20 nM CLK2, 50 μM peptide substrate, 100 μM ATP, read-out: Assay 2: CLK2 Enzyme IC50
T2 construct: purchased Carna Biosciences 04-127
T2 sequence (P49760 whole entry): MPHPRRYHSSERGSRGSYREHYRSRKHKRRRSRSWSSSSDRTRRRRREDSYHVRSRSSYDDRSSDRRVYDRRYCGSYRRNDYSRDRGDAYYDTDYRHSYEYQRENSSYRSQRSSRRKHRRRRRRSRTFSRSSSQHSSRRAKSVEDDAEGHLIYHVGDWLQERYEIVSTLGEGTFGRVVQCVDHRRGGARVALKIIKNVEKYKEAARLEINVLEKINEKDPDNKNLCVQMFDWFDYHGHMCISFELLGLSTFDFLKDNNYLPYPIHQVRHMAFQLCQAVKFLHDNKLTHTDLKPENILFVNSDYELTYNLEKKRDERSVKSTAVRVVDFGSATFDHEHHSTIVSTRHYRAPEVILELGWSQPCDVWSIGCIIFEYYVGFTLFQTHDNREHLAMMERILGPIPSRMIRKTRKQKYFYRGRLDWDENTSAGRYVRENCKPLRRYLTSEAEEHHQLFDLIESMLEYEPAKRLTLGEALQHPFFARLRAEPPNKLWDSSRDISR
Protocol: The inhibitory activity of putative kinase inhibitors and the potency of selected compounds were determined using ADP-GloTM assay. The kinase reaction was performed in the presence of excess peptide substrate and ATP at a concentration equivalent to Km. Upon termination of the kinase reaction, remaining ATP was depleted leaving only ADP reaction product, which was converted back to ATP with a coupled luciferin/luciferase reaction. The luminescent output from the coupled reaction was quantified and correlated with the kinase activity. […] The assay was conducted as follows: • 1. […] After 120 minutes, the reaction was stopped by addition of 5 pl ADP-Glo reagent (Promega V9102) and the plate incubated at RT for a further 60 minutes. • 5. 10 μL of Kinase Detection reagent (Promega V9102) was added to assay plate and incubated for a further 30 minutes prior to reading luminescence on an Envision (Perkin-Elmer). Data was analysed to calculate compound IC50and Ki as follows: • 1. […] Morrison Ki was determined using Morrison Ki equation (XL-fit).

intracellular CK2α = target: T3, intracellular CK2α (Homo sapiens, UniProt P19784); assay: Cell-based NanoBRET assay for inhibitor binding to intracellular CK2α; details: HCT116 cells transiently transfected with CSNK2A2-NanoLuc fusion vector; Tracer K-5; 2 h; read-out: Assay 3: NanoBRET ™ assay for binding to intracellular CK2α
T3 construct: host or cells: HCT116 (ATCC CCL-247)
T3 sequence (P19784 whole entry, the tested form may be a part): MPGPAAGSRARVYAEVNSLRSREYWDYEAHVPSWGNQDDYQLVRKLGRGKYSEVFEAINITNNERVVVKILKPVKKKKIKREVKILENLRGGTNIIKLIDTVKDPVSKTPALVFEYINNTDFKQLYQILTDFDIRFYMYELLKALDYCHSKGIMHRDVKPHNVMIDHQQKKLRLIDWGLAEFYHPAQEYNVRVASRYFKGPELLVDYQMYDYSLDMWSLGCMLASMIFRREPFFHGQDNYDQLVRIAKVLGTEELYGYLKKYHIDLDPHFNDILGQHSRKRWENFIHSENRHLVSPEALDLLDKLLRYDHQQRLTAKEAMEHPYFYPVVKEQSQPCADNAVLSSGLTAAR
Protocol: This assay used the NanoBRET™ System (Promega), an energy transfer technique designed to measure molecular proximity in living cells. The assay measured the apparent affinity of test compounds by competitive displacement of a NanoBRET™ tracer reversibly bound to a NanoLucR luciferase CK2α fusion protein in cells. A fixed concentration of tracer was added to cells expressing the desired NanoLucR-CK2α fusion protein to generate a BRET reporter complex. […] Donor emission wavelength (450 nm) and acceptor emission wavelength (610 nm or 630 nm) were measured on the Envision (Perkin-Elmer) and BRET ratio calculated for data analysis: BRET Ratio=(Acceptorsample/Donorsample)×1,000. • 7.

Row | IC50 (CK2α) [nM] | IC50 (CLK2) [nM] | IC50 (intracellular CK2α) [nM] | SMILES
1 | 8.8 | 300 | 528 | N#CCc1cc(CNCCCCOC2CN(c3cc(-n4cnnc4)cc4[nH]ncc34)C2)cc(OC(F)(F)F)c1 [Example 147, 2-(3-(((4-((1-(6-(4H-1,2,4-triazol-4-yl)-1H-indazol-4-yl)azetidin-3-yl)oxy)butyl)amino)methyl)-5-(trifluoromethoxy)phenyl)acetonitrile]
2 | 7.49 | 684 | 808 | O=C(CCNCc1ccc(-c2ccccc2)c(Cl)c1)NCCCNc1cc(C2COC2)cc2[nH]ncc12 [Example 81, 3-(((2-chloro-[1,1′-biphenyl]-4-yl)methyl)amino)-N-(3-((6-(oxetan-3-yl)-1H-indazol-4-yl)amino)propyl)propanamide]
3 | 7.41 | 5980 | 4640 | O=C(CCNCc1ccc(OC(F)(F)F)c(Cl)c1)NCCCNc1cc(-c2nnc[nH]2)cc2[nH]ncc12 [Example 174, N-(3-((6-(4H-1,2,4-triazol-3-yl)-1H-indazol-4-yl)amino)propyl)-3-((3-chloro-4-(trifluoromethoxy)benzyl)amino)propanamide]
4 | 17 | 448 | 11400 | O=C(CCNCc1ccc(OC(F)(F)F)c(Cl)c1)NCCCNc1cc(-n2cnnc2)c(Cl)c2[nH]ncc12 [Example 181, 3-((3-chloro-4-(trifluoromethoxy)benzyl)amino)-N-(3-((7-chloro-6-(4H-1,2,4-triazol-4-yl)-1H-indazol-4-yl)amino)propyl)propanamide]
5 | 393 | 43000 | > 50000 | FC(F)(F)Oc1ccc(CNCCCCOCCOc2cc(-c3ccnnc3)cc3[nH]nnc23)cc1Cl [Example 102, N-(3-chloro-4-(trifluoromethoxy)benzyl)-4-(2-((6-(pyridazin-4-yl)-1H-benzo[d][1,2,3]triazol-4-yl)oxy)ethoxy)butan-1-amine]
6 | 25.4 | 186 | 1730 | N#CCc1cc(CNCCCCOC2CN(c3cc(-c4cnoc4)cc4[nH]ncc34)C2)cc(C(F)(F)F)c1 [Example 145, 2-(3-(((4-((1-(6-(isoxazol-4-yl)-1H-indazol-4-yl)azetidin-3-yl)oxy)butyl)amino)methyl)-5-(trifluoromethyl)phenyl)acetonitrile]
7 | 19.7 | 10000 | 2130 | N#Cc1cc(-c2cc(NCCCNC(=O)CCNCc3ccc(-c4ccccc4)c(Cl)c3)c3cn[nH]c3c2)ccn1 [Example 74, 3-(((2-chloro-[1,1′-biphenyl]-4-yl)methyl)amino)-N-(3-((6-(2-cyanopyridin-4-yl)-1H-indazol-4-yl)amino)propyl)propanamide]
8 | 215 | 30200 |  | O=C(O)c1cc(NCCCCNCCCCNCc2ccc(-c3ccccc3)c(Cl)c2)c2cn[nH]c2c1 [Example 60, 4-((4-((4-(((2-chloro-[1,1′-biphenyl]-4-yl)methyl)amino)butyl)amino)butyl)amino)-1H-indazole-6-carboxylic acid]

Second part, the compound before the results:

Row | SMILES | IC50 (CK2α) [nM] | IC50 (CLK2) [nM] | IC50 (intracellular CK2α) [nM]
9 | Cc1cn(-c2cc(NCCCNC(=O)CCNCc3ccc(-c4ccccc4)c(Cl)c3)c3cn[nH]c3c2)cn1 [Example 29, 3-(((2-chloro-[1,1′-biphenyl]-4-yl)methyl)amino)-N-(3-((6-(4-methyl-1H-imidazol-1-yl)-1H-indazol-4-yl)amino)propyl)propanamide] | 22.1 | 649 | 2090
10 | COc1n[nH]cc1-c1cc(NCCOCCCCNCc2cc3cc(C(F)(F)F)ccc3[nH]2)c2cn[nH]c2c1 [Example 92, 6-(3-methoxy-1H-pyrazol-4-yl)-N-(2-(4-(((5-(trifluoromethyl)-1H-indol-2-yl)methyl)amino)butoxy)ethyl)-1H-indazol-4-amine] | 19.1 | 24.1 | 1780
11 | Cc1cc(-c2cc(NCCCNC(=O)CCNCc3ccc(-c4ccccc4)c(Cl)c3)c3cn[nH]c3c2)ccn1 [Example 21, 3-(((2-Chloro-[1,1′-biphenyl]-4-yl)methyl)amino)-N-(3-((6-(2-methylpyridin-4-yl)-1H-indazol-4-yl)amino)propyl)propanamide] | 2.93 | 446 | 346
12 | O=C(Cc1cnc(CCNCc2ccc(OC(F)(F)F)c(Cl)c2)o1)Nc1cc(-n2cnnc2)cc2[nH]ncc12 [Example 15, N-(6-(4H-1,2,4-triazol-4-yl)-1H-indazol-4-yl)-2-(2-(2-((3-chloro-4-(trifluoromethoxy)benzyl)amino)ethyl)oxazol-5-yl)acetamide] | 27.1 | 1830 | > 50000
13 | FC(F)(F)c1ccc2[nH]c(CNCCCCOCCNc3cc(-c4ccncn4)cc4[nH]ncc34)cc2c1 [Example 95, 6-(pyrimidin-4-yl)-N-(2-(4-(((5-(trifluoromethyl)-1H-indol-2-yl)methyl)amino)butoxy)ethyl)-1H-indazol-4-amine] | 6.56 | 203 | 336
14 | FC(F)(F)c1ccc2[nH]c(CNCCCCOCCNc3cc(-c4cnoc4)cc4[nH]nnc34)cc2c1 [Example 143, 6-(isoxazol-4-yl)-N-(2-(4-(((5-(trifluoromethyl)-1H-indol-2-yl)methyl)amino)butoxy)ethyl)-1H-benzo[d][1,2,3]triazol-4-amine] | 7.01 | 625 | 564
15 | c1cc2[nH]c(CNCCCCOCCNc3cc(-c4cnoc4)cc4[nH]ncc34)cc2cc1OC1CCC1 [Example 98, N-(2-(4-(((5-cyclobutoxy-1H-indol-2-yl)methyl)amino)butoxy)ethyl)-6-(isoxazol-4-yl)-1H-indazol-4-amine] | 0.82 | 122 | 105
16 | O=C(CCNCc1ccc(OC(F)(F)F)c(Cl)c1)NCCCOc1cc(-n2cnnc2)cc2[nH]ncc12 [Example 19, N-(3-((6-(4H-1,2,4-triazol-4-yl)-1H-indazol-4-yl)oxy)propyl)-3-((3-chloro-4-(trifluoromethoxy)benzyl)amino)propanamide] | 3.13 | 574 | 5070
17 | O=C(CCNCc1ccc(OC(F)(F)F)c(Cl)c1)NCCCNc1cc(-c2ccncc2)cc2[nH]ncc12 [Example 5, 3-((3-Chloro-4-(trifluoromethoxy)benzyl)amino)-N-(3-((6-(pyridin-4-yl)-1H-indazol-4-yl)amino)propyl)propanamide] | 2.15 | 306 | 240
